According to patent US20030027722A1, “Influencing the activity of plant growth regulators” (priority 1998, published 2003):

Tests used:
[1] = tested on: apple stalk slices; assay: rooting regeneration on apple stalk slices with elicitors; assay type: cell-based; settings: roots, apple, 1 μM indolebutyric or indoleacetic acid, 1 or 3 days
Procedure: The effect of the elicitors on rooting regeneration on apple stalk slices was studied. The stalk slices were incubated on medium with elicitors in combination with a sub-optimal auxin concentration (1 μM indolebutyric acid or 1 μM indoleacetic acid) which were added for 1 or 3 days to the plant tissue for testing. The increase was measured in the number of regenerated roots compared to the auxin control.

[2] = tested on: cut flowers (carnations); assay: retarding the aging of cut flowers; assay type: in vivo, carnation
Procedure: The DMF was evaporated and the remaining solid was dissolved in methanol and filtered. Diluted hydrochloric acid was added to the methanol solution. After 2 hours at room temperature the solvent was evaporated and G-A-A was obtained.

[3] = tested on: apple; assay: roots per tissue fragment in apple; assay type: cell-based
From the text: An apple IAA may induce a maximum of 3.5 roots per tissue fragment, while IAA-N-BSA induces a maximum of 8 roots per tissue fragment. Very recalcitrant trees like summer oak and cork oak can be rooted to a much higher percentage than with any of the conventionally applied rooting powders. The compounds described in EXAMPLE 3 and together with elicitors in Table 1 show similar effects.

[4] = tested on: apple and rose; assay: rooting in apple and rose, stem-disk method; assay type: cell-based; settings: rooting powder, stem-disks
Procedure: The auxin compounds were tested with respect to rooting in apple and rose
b) Tests are performed by the stem-disk method as published by Van der Krieken et al., Plant Cell Reports (1993), vol. 12, 203-206, in which the number of roots of a large number of stem-disks cut from a particular plant are counted and treated with rooting powder containing in this case the compounds described.

[5] = tested on: Carnations (cultivar Miledy); assay: senescence of carnations after simulated dry transport; assay type: in vivo, carnation
Procedure: The flowers were treated for one day with silver thiosulfate (STS), t-BOC-AOA, or with water in the case of controls. The flowers were then subjected to simulated dry transport conditions: 4 days at 8° C. and a relative humidity of 75%. The bottom 5 cm of each stem was then removed, and the flowers were incubated on water for 2 hours at 8° C. and a relative humidity of 75%. The flowers were then transferred to a climate room with standard flower development conditions (20° C., relative humidity of 75%, light level of 1000 lux). Senescence of the flowers was then determined every day. If flowers started wilting (mostly at the edges of the petals) or changed color they were no longer in the category of “flowers in a perfect stage” (see Table 3).

[6] = tested on: plantroots; assay: root induction by chemically modified auxins on various plants; settings: in vivo
From the text: Attaching IAA to BSA is done to increase the amount of IAA administered to the roots. Up to 32 IAA molecules can be attached to BSA in 2 different ways. Either as N-conjugate of IAA or as C-conjugate. Upon addition of the IAA-BSA to plantroots, the IAA is split off in the root and leads to the availability of IAA during a longer period allowing the root tissue to become sensitive.

[7] = tested on: rose; assay: rooting powder comparison, rooting and development of scions, rose; assay type: in vivo; parameters: key: 1: The compounds with the best relative overall effect on rooting and development were placed in category I; categories which ranged from 1 to 6
From the text: (§1) d) In Table 2 standard indol butyric acid (IBA), which is the active component in most currently used rooting powders, is compared with indol hexanolic acid (IHA) and two BSA adducts, both—coupled, namely IBA and indole acetic acid (BSA-N-IAA). The effect on rooting and the plant development (stem growth, outgrowth of new shoots, synchronicity of growth of a population of plants) were inter alia factors determining the place in the categories which ranged from 1 to 6. The compounds with the best relative overall effect on rooting and development were placed in category I. Rooting and subsequent development of scions for different types of herbaceous and woody plants differs largely for those types of plants. A rose cultivar, “enermus stur cinq”, was used as an example of a recalcitrant woody plant. The chrysanthemum species “regan” is an example of an easy to root herbaceous plant.

[8] = tested on: chrysanthemum; assay: rooting powder comparison, rooting and development of scions, chrysanthemum; assay type: in vivo; parameters: key: 1: The compounds with the best relative overall effect on rooting and development were placed in category I; categories which ranged from 1 to 6
From the text: as §1

[9] = tested on: carnation; assay: rooting powder comparison, rooting and development of scions, carnation; assay type: in vivo; parameters: key: 1: The compounds with the best relative overall effect on rooting and development were placed in category I; categories which ranged from 1 to 6
From the text: as §1

[10] = tested on: rose, chrysanthemum, carnation; assay: rooting powder comparison, average over species; assay type: in vivo; settings: for average category: average over the species tested
From the text: as §1

[11] = tested on: tissue explants of rose; assay: shoot formation on tissue explants of rose; assay type: cell-based
Procedure: It was also observed that tissue explants of rose when treated with IBA (normal addition) or IHA, respectively, formed about 50 times more shoots (2 shoots versus 100 per 20 tissue explants) in the latter case.
In the studies for new applications of PGRs and/or elicitors, which were performed within the framework of the present invention, several new and unexpected observations were made. […] Furthermore, the inventors established that elicitors do cause a statistically significant growth retardation of all tissues, as can be illustrated for rose shoots. This effect was enhanced by PGR(s), in casu antigibberelins, i.e. paclobutrasol. […] Finally the observation was made that when tissue explants of rose were treated with respectively IBA (normal addition) or IHA, in the last case about 50 times more shoots were formed (2 shoots versus 100 per 20 tissue explants).

[12] = 7 d after the start of the experiment
[13] = 8 d after the start of the experiment
[14] = 9 d after the start of the experiment
[15] = 10 d after the start of the experiment
[16] = 11 d after the start of the experiment
[17] = 12 d after the start of the experiment
[18] = 13 d after the start of the experiment
[19] = 14 d after the start of the experiment
[20] = 15 d after the start of the experiment
[21] = 16 d after the start of the experiment
[22] = 17 d after the start of the experiment
[23] = 18 d after the start of the experiment
[24] = 19 d after the start of the experiment
[25] = 20 d after the start of the experiment
[26] = 21 d after the start of the experiment
[27] = 22 d after the start of the experiment
[28] = rose enermus stur cinq (recalcitrant woody plant)
[29] = chrys. regan (easy to root herbaceous plant)

CC(=O)Nc1ccc(O)cc1 [4-acetamidophenol]
increased regeneration in relation to control (auxin alone) ([1]; elicitor 1 μM): 75%

CC(C)(NC(=O)CCC(=O)NC(C)(C)C(=O)O)C(=O)O [A-S-A]
activity in retarding the aging of the flowers, times relative to non-modified AIB ([2]; in water, concentration 5×10^−5 to 10^−3 M, carnations): 50

O=C(O)Cc1c[nH]c2ccccc12 [IAA, indole-3-acetic acid, reference compound]
maximum of roots per tissue fragment [3]: 3.5 roots per tissue fragment

CC(C)(NC(=O)CCCc1c[nH]c2ccccc12)C(=O)O [IBA-AIB]
rooting compared with standard hormone treatment / IBA alone [4]: more active than the standard hormone treatment

C=CC(C)(C)OC[C@H]1O[C@H](O[C@@H]2C3=C([C@H](C)COC(C)=O)C[C@H](O)[C@]3(C)/C=C3/[C@@H](COC)CC[C@H]3[C@@H](C)[C@H]2O)[C@H](O)[C@@H](OC(C)=O)[C@@H]1O [fusicocine]
increased regeneration in relation to control (auxin alone) ([1]; elicitor 0.01 μM): 75%

CC/C=C\C[C@H]1C(=O)CC[C@@H]1CC(=O)O [jasmonic acid]
increased regeneration in relation to control (auxin alone) ([1]; elicitor 0.01 μM): 210%

CC(C)(C)OC(=O)NOCC(=O)O [t-Boc-AOA, tertiair-butyloxycarbonylaminooxyacetic acid]
Percentage of flowers in the perfect stage after treatment [5, 12]: 100%
Percentage of flowers in the perfect stage after treatment [5, 13]: 100%
Percentage of flowers in the perfect stage after treatment [5, 14]: 100%
Percentage of flowers in the perfect stage after treatment [5, 15]: 100%
Percentage of flowers in the perfect stage after treatment [5, 16]: 100%
Percentage of flowers in the perfect stage after treatment [5, 17]: 100%
Percentage of flowers in the perfect stage after treatment [5, 18]: 100%
Percentage of flowers in the perfect stage after treatment [5, 19]: 100%
Percentage of flowers in the perfect stage after treatment [5, 20]: 100%
Percentage of flowers in the perfect stage after treatment [5, 21]: 100%
Percentage of flowers in the perfect stage after treatment [5, 22]: 85%
Percentage of flowers in the perfect stage after treatment [5, 23]: 75%
Percentage of flowers in the perfect stage after treatment [5, 24]: 53%
Percentage of flowers in the perfect stage after treatment [5, 25]: 30%
Percentage of flowers in the perfect stage after treatment [5, 26]: 4%
Percentage of flowers in the perfect stage after treatment [5, 27]: 0%
delaying flower senescence, compared with STS ([5]; summary of Table 3): generally comparable to or superior to STS

O=C(OC[C@H]1O[C@@H](OC(=O)c2cc(O)c(O)c(OC(=O)c3cc(O)c(O)c(O)c3)c2)[C@H](OC(=O)c2cc(O)c(O)c(OC(=O)c3cc(O)c(O)c(O)c3)c2)[C@@H](OC(=O)c2cc(O)c(O)c(OC(=O)c3cc(O)c(O)c(O)c3)c2)[C@@H]1OC(=O)c1cc(O)c(O)c(OC(=O)c2cc(O)c(O)c(O)c2)c1)c1cc(O)c(O)c(OC(=O)c2cc(O)c(O)c(O)c2)c1 [tannic acid]
increased regeneration in relation to control (auxin alone) ([1]; elicitor 1 μM): 225%

IAA-C-BSA: indoleacetic acid-C-conjugate with BSA
effectiveness in root induction, comparison [6]: somewhat less effective in root induction as IAA-N-BSA, but still better than IAA alone

IAA-N-BSA: indoleacetic acid-N-conjugate with BSA
maximum of roots per tissue fragment [3]: 8 roots per tissue fragment
category of relative overall effect on rooting and plant development [7, 28]: 1
category of relative overall effect on rooting and plant development ([7]; rose n. brier): 3
category of relative overall effect on rooting and plant development [8, 29]: 1
category of relative overall effect on rooting and plant development ([8]; chrys. snowdon): 2
category of relative overall effect on rooting and plant development ([9]; carnation m. brilj.): 1
category of relative overall effect on rooting and plant development ([9]; carnation tempo): 3
average category [10]: 1.8
overall assessment of rooting powders from Table 2 ([10]; in vivo): especially suited for recalcitrant plants

IBA-N-BSA: N-conjugate with BSA made with IBA instead of IAA
category of relative overall effect on rooting and plant development [7, 28]: 2
category of relative overall effect on rooting and plant development ([7]; rose n. brier): 1
category of relative overall effect on rooting and plant development [8, 29]: 4
category of relative overall effect on rooting and plant development ([8]; chrys. snowdon): 1
category of relative overall effect on rooting and plant development ([9]; carnation m. brilj.): 1
category of relative overall effect on rooting and plant development ([9]; carnation tempo): 3
average category [10]: 2.0

glucose-acetate-amino-oxyacetic acid [G-A-A]
effect against aging ([2]; carnation): effective means against aging

indole butyric acid [IBA, reference compound]
shoots formed [11]: 2 shoots per 20 tissue explants
category of relative overall effect on rooting and plant development [7, 28]: 3
category of relative overall effect on rooting and plant development ([7]; rose n. brier): 1
category of relative overall effect on rooting and plant development [8, 29]: 4
category of relative overall effect on rooting and plant development ([8]; chrys. snowdon): 1
average category [10]: 2.25

silver thiosulfate [STS, reference compound]
Percentage of flowers in the perfect stage after treatment [5, 12]: 100%
Percentage of flowers in the perfect stage after treatment [5, 13]: 100%
Percentage of flowers in the perfect stage after treatment [5, 14]: 100%
Percentage of flowers in the perfect stage after treatment [5, 15]: 100%
Percentage of flowers in the perfect stage after treatment [5, 16]: 100%
Percentage of flowers in the perfect stage after treatment [5, 17]: 100%
Percentage of flowers in the perfect stage after treatment [5, 18]: 100%
Percentage of flowers in the perfect stage after treatment [5, 19]: 100%
Percentage of flowers in the perfect stage after treatment [5, 20]: 100%
Percentage of flowers in the perfect stage after treatment [5, 21]: 100%
Percentage of flowers in the perfect stage after treatment [5, 22]: 88%
Percentage of flowers in the perfect stage after treatment [5, 23]: 65%
Percentage of flowers in the perfect stage after treatment [5, 24]: 8%
Percentage of flowers in the perfect stage after treatment [5, 25]: 0%
Percentage of flowers in the perfect stage after treatment [5, 26]: 0%
Percentage of flowers in the perfect stage after treatment [5, 27]: 0%
